Each structure is given as a SMILES string. Bounds are passed on as bounds.

The experiment deals with T1, DCAF1 (1058-1396) (Homo sapiens, UniProt Q9Y4B6).
T1 construct: a fragment of a DCAF1 protein that includes amino acid residues A1058 to E1396; His6 (N, cleaved yes); made in house; host or cells: Sf9 insect cells (Bac-to-Bac baculovirus, pFastBacHT vector)
T1 sequence (Q9Y4B6 1058-1396): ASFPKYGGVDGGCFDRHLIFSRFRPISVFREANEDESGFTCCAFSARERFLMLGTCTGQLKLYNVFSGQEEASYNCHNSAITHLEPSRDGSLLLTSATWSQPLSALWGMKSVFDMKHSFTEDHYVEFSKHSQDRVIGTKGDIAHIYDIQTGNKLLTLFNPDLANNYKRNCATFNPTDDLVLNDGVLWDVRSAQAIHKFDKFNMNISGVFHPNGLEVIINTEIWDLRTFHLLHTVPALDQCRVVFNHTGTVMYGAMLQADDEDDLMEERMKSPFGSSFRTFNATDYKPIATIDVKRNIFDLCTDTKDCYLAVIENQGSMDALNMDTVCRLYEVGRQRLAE
Description: Surface plasmon resonance (SPR) binding assay, compound binding to DCAF1. Conditions: immobilized DCAF1 (1058-1396), steady state affinity model, 25° C. As for the experimental part: Binding affinities of specific exemplary compounds to DCAF1 (1058-1396), which is a fragment of a DCAF1 protein that includes amino acid residues A1058 to E1396 were determined by a surface plasmon resonance (SPR) assay. Briefly, purified DCAF1 (1058-1396) proteins were immobilized at a density of 9,000-11,000 resonance units (RUs) on a CMS sensor chip. Sensorgrams were recorded at different concentrations of compounds in multi-cycle kinetic format. Data were analyzed using a steady state affinity model through Biacore Evaluation Software to provide equivalent dissociation constants (Kd).
Binding affinities of compounds to DCAF1 were determined by a surface plasmon resonance (SPR) assay. Purified DCAF1 (1058-1396) proteins were immobilized on a CMS sensor chip, and a dose range of compound solutions were injected in multi-cycle kinetic format. Data were analyzed using a steady state model to provide equivalent dissociation constants (Kd).
Protein Expression and Purification: Human DCAF1 (1058-1396) (UniPro: Q9Y4B6) coding sequences were cloned into pFastBacHT vector and were expressed in Sf9 cells using Bac-to-Bac baculovirus expression system (Thermo Fisher Scientific). The expression construct for DCAF1 (1058-1396) included a N-terminal His6-tag to facilitate the purification. DCAF1 (1058-1396) proteins were obtained from supernatants of cell lysates and purified through sequential application of Ni affinity chromatography (Ni-NTA column, Bio-Rad), Tag removal using TEV protease, and size-exclusion chromatography (Superdex 200 column, GE Healthcare).
Surface plasmon resonance (SPR) binding assays: SPR studies were performed on a Biacore X100 plus or T200 instrument (GE Healthcare). Immobilization of purified DCAF1 (1058-1396) was carried out at 25° C. using a CMS sensor chip. The surface was pre-equilibrated in HBS-EP running buffer (10 mM HEPES, pH 7.4, 150 mM NaCl, 3 mM EDTA, 0.05% P20), before being activated with EDC/NHS. DCAF1 (1058-1396) was immobilized through amino groups to a density of 9,000-12,000 resonance units (RUs) on flow cell channel 2 (FC2), whereas flow cell channel 1 (FC1) was used as reference. Both DCAF1 immobilized and reference surfaces were deactivated with 1 M ethanolamine.
Interaction experiments were performed at 25° C. The compounds were prepared and serially diluted in HBS-EP running buffer containing final 2% DMSO (6-point two-fold serial dilution, 100 μM -3.125 μM final concentration of compounds). Compound Solutions were injected individually in multi-cycle kinetic format without regeneration (flow rate 30 μL/min, association time 60 s, dissociation time 60 s). Sensorgrams from reference surfaces and blank injections were subtracted from the raw data (double-referenced) and the data was solvent-corrected prior to analysis. Data were analyzed using a steady state affinity model through Biacore Evaluation Software to provide equivalent dissociation constants (Kd).
For orientation: Surface plasmon resonance follows binding to a sensor surface in real time, without labels.
With `COc1cc(C)cc(CNCc2cnc[nH]2)c1` [CPD-028, N-((1H-imidazol-5-yl)methyl)-1-(3-methoxy-5-methylphenyl) methanamine], the Kd (in general, a measure of binding affinity in units of concentration) is > 100 µM. Molecule `COC(=O)c1scc(C)c1S(=O)(=O)N1c2ccc(C)cc2C2CN(C)CCC21` (stereo not drawn) [CPD-076, methyl 3-((2,8-dimethyl-1,2,3,4,4a,9b-hexahydro-5H-pyrido[4,3-b]indol-5-yl)sulfonyl)-4-methylthiophene-2-carboxylate] came in with a Kd of 40 to 70 µM. Take `Cc1ccc2c(c1)C1CN(C)CCC1N2C(=O)c1cc(-n2cccc2)ccn1` (stereo not drawn) [CPD-068, (4-(1H-pyrrol-1-yl)pyridin-2-yl)(2,8-dimethyl-1,2,3,4,4a,9b-hexahydro-5H-pyrido[4,3-b]indol-5-yl)methanone]: the Kd is > 100 µM. The figure for `COc1ccc2cc(CNCc3cncn3CC(C)C)c(=O)[nH]c2c1` [CPD-104, 3-((((1-isobutyl-1H-imidazol-5-yl)methyl)amino)methyl)-7-methoxyquinolin-2(1H)-one] is 70 to 100 µM; for `Cc1ccc2c(c1)C1CN(C)CCC1N2C(=O)CCc1cccs1` (stereo not drawn) [CPD-082, 1-(2,8-dimethyl-1,2,3,4,4a,9b-hexahydro-5H-pyrido[4,3-b]indol-5-yl)-3-(thiophen-2-yl)propan-1-one] it is > 100 µM; for `Cc1cc(N)n(CC(=O)N(C)CC2Cc3ccccc3CN2C)n1` (stereo not drawn) [CPD-093, 2-(5-amino-3-methyl-1H-pyrazol-1-yl)-N-methyl-N-((2-methyl-1,2,3,4-tetrahydroisoquinolin-3-yl)methyl)acetamide] it is 40 to 70 µM. Turning to `CN1Cc2ccccc2CC1CNC(=O)c1cncc(O)n1` (stereo not drawn) [CPD-015, 6-hydroxy-N-((2-methyl-1,2,3,4-tetrahydroisoquinolin-3-yl)methyl)pyrazine-2-carboxamide], the Kd was > 100 µM.

On to `Cc1ccc2c(c1)[C@@H]1CN(C)CC[C@H]1N2C(=O)/C=C/c1nccs1` (racemic) [CPD-035, (E)-1-(trans-2,8-dimethyl-1,2,3,4,4a,9b-hexahydro-5H-pyrido [4,3-b]indol-5-yl)-3-(thiazol-2-yl)prop-2-en-1-one], for which the Kd was > 100 µM. Take `OCCOc1cccc(CNCc2cnc[nH]2)c1` [CPD-103, 2-(3-((((1H-imidazol-5-yl)methyl)amino)methyl)phenoxy)ethan-1-ol]: the Kd is > 100 µM. The value for `Cc1ccc(S(=O)(=O)c2nc(N3c4ccc(C)cc4C4CN(C)CCC43)sc2Cl)cc1` (stereo not drawn) [CPD-062, 5-chloro-2-(2,8-dimethyl-1,2,3,4,4a,9b-hexahydro-5H-pyrido [4,3-b]indol-5-yl)-4-tosylthiazole] was > 100 µM; that for `Cc1nc(N)nc(C)c1CC(=O)NCC1Cc2ccccc2CN1C` (stereo not drawn) [CPD-094, 2-(2-amino-4,6-dimethylpyrimidin-5-yl)-N-((2-methyl-1,2,3,4-tetrahydroisoquinolin-3-yl)methyl)acetamide] was 40 to 70 µM; that for `Cc1ccc2[nH]c3c(c2c1)C[N+](C)(C)CC3` [CPD-021, 2,2,8-trimethyl-2,3,4,5-tetrahydro-1H-2λ^4-pyrido[4,3-b]indol-3-ylium] was > 100 µM. The figure for `Cc1ccc2c(c1)[C@H]1CN(C)CC[C@H]1N2` (racemic) [CPD-033, cis-2,8-dimethyl-2,3,4,4a,5,9b-hexahydro-1H-pyrido[4,3-b]indole] is > 100 µM; for `Cc1ccc2[nH]c3c(c2c1)CN(CC1(CC(=O)O)CC1)CC3` [CPD-055, 2-(1-((8-methyl-1,3,4,5-tetrahydro-2H-pyrido[4,3-b]indol-2-yl)methyl)cyclopropyl) acetic acid] it is > 100 µM. In turn, `CCn1ccnc1CN(C)CC1Cc2ccccc2CN1C` (stereo not drawn) [CPD-091, 1-(1-ethyl-1H-imidazol-2-yl)-N-methyl-N-((2-methyl-1,2,3,4-tetrahydroisoquinolin-3-yl)methyl)methanamine] yielded a Kd of 70 to 100 µM. Turning to `Oc1ccc(F)c(CNCc2cnc[nH]2)c1` [CPD-102, 3-((((1H-imidazol-5-yl)methyl)amino)methyl)-4-fluorophenol], the Kd was > 100 µM. With `CCCCNCc1cccn1-c1ccccc1` [CPD-100, N-((1-phenyl-1H-pyrrol-2-yl)methyl)butan-1-amine], the Kd fell in the range of 70 to 100 µM. Turning to `Cc1cccc2c1[C@@H]1CN(C)CC[C@H]1N2C` (racemic) [CPD-040, trans-2,5,9-trimethyl-2,3,4,4a,5,9b-hexahydro-1H-pyrido[4,3-b]indole], the Kd was > 100 µM. The value for `COc1cc(C)ccc1C(=O)N1c2ccc(C)cc2C2CN(C)CCC21` (stereo not drawn) [CPD-067, (2,8-dimethyl-1,2,3,4,4a,9b-hexahydro-5H-pyrido[4,3-b]indol-5-yl)(2-methoxy-4-methylphenyl)methanone] was > 100 µM; that for `CN1Cc2cc(NCCOCCOCCOCCN)ccc2CC1CNc1ncccc1F` (stereo not drawn) [CPD-017, N-(2-(2-(2-(2-aminoethoxy)ethoxy)ethoxy)ethyl)-3-(((3-fluoropyridin-2-yl)amino)methyl)-2-methyl-1,2,3,4-tetrahydroisoquinolin-7-amine] was 40 to 70 µM. The molecule `Cn1cccc1CNCc1ccncc1` [CPD-001, 1-(1-methyl-1H-pyrrol-2-yl)-N-(pyridin-4-ylmethyl)methanamine] displayed a dissociation constant (Kd) of 40 to 70 µM. The figure for `COC(=O)NCCN1CCc2ccccc2C1` [CPD-023, methyl (2-(3,4-dihydroisoquinolin-2(1H)-yl)ethyl)carbamate] is 70 to 100 µM; for `Cn1cccc1CNCc1cccnc1` [CPD-002, 1-(1-methyl-1H-pyrrol-2-yl)-N-(pyridin-3-ylmethyl)methanamine] it is > 100 µM.

The molecule `CN(CC1Cc2ccccc2CN1C)C(=O)Cn1cnc2ccccc21` (stereo not drawn) [CPD-095, 2-(1H-benzo[d]imidazol-1-yl)-N-methyl-N-((2-methyl-1,2,3,4-tetrahydroisoquinolin-3-yl)methyl)acetamide] registered a Kd of 40 to 70 µM. The figure for `c1ncc(CNCc2ccc3cc[nH]c3c2)[nH]1` [CPD-029, N-((1H-imidazol-5-yl)methyl)-1-(1H-indol-6-yl)methanamine] is > 100 µM; for `Cc1ccc2c(c1)C1CN(C)CCC1N2S(=O)(=O)c1c([N+](=O)[O-])ccc(C)c1C` (stereo not drawn) [CPD-078, 5-((2,3-dimethyl-6-nitrophenyl)sulfonyl)-2,8-dimethyl-2,3,4,4a,5,9b-hexahydro-1H-pyrido[4,3-b]indole] it is > 100 µM. The value for `CN1Cc2ccccc2CC1CNc1ncccc1F` (stereo not drawn) [CPD-007, 3-fluoro-N-((2-methyl-1,2,3,4-tetrahydroisoquinolin-3-yl)methyl)pyridin-2-amine] was > 100 µM; that for `Cc1ccc2c(c1)[C@H]1CN(C)CC[C@H]1N2C(=O)/C=C/c1nccs1` (racemic) [CPD-037, (E)-1-(cis-2,8-dimethyl-1,2,3,4,4a,9b-hexahydro-5H-pyrido [4,3-b]indol-5-yl)-3-(thiazol-2-yl)prop-2-en-1-one] was > 100 µM. As for `Cc1ccc2c(c1)C1CN(C)CCC1N2C(=O)c1cc2c(s1)CCCC2` (stereo not drawn) [CPD-073, (2,8-dimethyl-1,2,3,4,4a,9b-hexahydro-5H-pyrido[4,3-b]indol-5-yl)(4,5,6,7-tetrahydrobenzo[b]thiophen-2-yl)methanone], the Kd was > 100 µM. The figure for `CN1Cc2ccccc2CC1CNC(=O)Nc1ccc2c(c1)nnn2C` (stereo not drawn) [CPD-096, 1-((2-methyl-1,2,3,4-tetrahydroisoquinolin-3-yl)methyl)-3-(1-methyl-1H-benzo [d][1,2,3]triazol-5-yl)urea] is > 100 µM.

The values above are taken from patent publication US20240197694A1, “MODIFIED PROTEINS AND PROTEIN BINDERS” (Cullgen (Shanghai), Inc., priority 2021, published 2024).
